Assay results published in patent US6352958B1, “Cycloimido-substituted benzofused heterocyclic herbicides” (FMC Corporation, priority 1997, dated 2002).

Experiments:
Type in all cases: in vivo
[1] = tested on: common cocklebur (Xanthium strumarium L.); assay: Preemergence herbicidal activity, cocklebur; conditions: Rate of Application 0.3 Kg/Ha, examined after 12-17 days
[2] = tested on: soybean (Glycine max var. Winchester); assay: Preemergence herbicidal activity, soybean; conditions: Rate of Application 0.3 Kg/Ha, examined after 12-17 days
[3] = tested on: green foxtail (Setaria viridis); assay: Postemergence herbicidal activity, green foxtail; conditions: rate of application 0.3 Kg/Ha, rated after 12-17 days
[4] = tested on: green foxtail (Setaria viridis); assay: Preemergence herbicidal activity, green foxtail; conditions: Rate of Application 0.3 Kg/Ha, examined after 12-17 days
[5] = tested on: wheat (Triticum aestivum var. Lew); assay: Preemergence herbicidal activity, wheat; conditions: Rate of Application 0.3 Kg/Ha, examined after 12-17 days
[6] = tested on: common cocklebur (Xanthium strumarium L.); assay: Postemergence herbicidal activity, cocklebur; conditions: rate of application 0.3 Kg/Ha, rated after 12-17 days
[7] = tested on: Johnsongrass (Sorghum halepense); assay: Preemergence herbicidal activity, johnsongrass; conditions: Rate of Application 0.3 Kg/Ha, examined after 12-17 days
[8] = tested on: velvetleaf (Abutilon theophrasti); assay: Postemergence herbicidal activity, velvetleaf; conditions: rate of application 0.3 Kg/Ha, rated after 12-17 days
[9] = tested on: Johnsongrass (Sorghum halepense); assay: Postemergence herbicidal activity, johnsongrass; conditions: rate of application 0.3 Kg/Ha, rated after 12-17 days
[10] = tested on: common chickweed (Stellaria media); assay: Preemergence herbicidal activity, chickweed; conditions: Rate of Application 0.3 Kg/Ha, examined after 12-17 days
[11] = tested on: soybean (Glycine max var. Winchester); assay: Postemergence herbicidal activity, soybean; conditions: rate of application 0.3 Kg/Ha, rated after 12-17 days
[12] = tested on: field corn (Zea mays var. Pioneer 3732); assay: Preemergence herbicidal activity, corn; conditions: Rate of Application 0.3 Kg/Ha, examined after 12-17 days
[13] = tested on: blackgrass (Aloepecurus myosuroides); assay: Postemergence herbicidal activity, blackgrass; conditions: rate of application 0.3 Kg/Ha, rated after 12-17 days
[14] = tested on: blackgrass (Aloepecurus myosuroides); assay: Preemergence herbicidal activity, blackgrass; conditions: Rate of Application 0.3 Kg/Ha, examined after 12-17 days
[15] = tested on: morningglory (Ipomea lacunosa or Ipomea hederacea); assay: Postemergence herbicidal activity, morningglory; conditions: rate of application 0.3 Kg/Ha, rated after 12-17 days
[16] = tested on: common chickweed (Stellaria media); assay: Postemergence herbicidal activity, chickweed; conditions: rate of application 0.3 Kg/Ha, rated after 12-17 days
[17] = tested on: field corn (Zea mays var. Pioneer 3732); assay: Postemergence herbicidal activity, corn; conditions: rate of application 0.3 Kg/Ha, rated after 12-17 days
[18] = tested on: wheat (Triticum aestivum var. Lew); assay: Postemergence herbicidal activity, wheat; conditions: rate of application 0.3 Kg/Ha, rated after 12-17 days
[19] = tested on: velvetleaf (Abutilon theophrasti); assay: Preemergence herbicidal activity, velvetleaf; conditions: Rate of Application 0.3 Kg/Ha, examined after 12-17 days
[20] = tested on: morningglory (Ipomea lacunosa or Ipomea hederacea); assay: Preemergence herbicidal activity, morningglory; conditions: Rate of Application 0.3 Kg/Ha, examined after 12-17 days

Row | SMILES | PREEMERGENCE HERBICIDAL ACTIVITY (% CONTROL) XANPE [1] [%] | PREEMERGENCE HERBICIDAL ACTIVITY (% CONTROL) SOY [2] [%] | Postemergence herbicidal activity (% control) SETVI [3] [%] | PREEMERGENCE HERBICIDAL ACTIVITY (% CONTROL) SETVI [4] [%] | PREEMERGENCE HERBICIDAL ACTIVITY (% CONTROL) WHT [5] [%] | Postemergence herbicidal activity (% control) XANPE [6] [%] | PREEMERGENCE HERBICIDAL ACTIVITY (% CONTROL) SORHA [7] [%] | Postemergence herbicidal activity (% control) ABUTH [8] [%] | Postemergence herbicidal activity (% control) SORHA [9] [%] | PREEMERGENCE HERBICIDAL ACTIVITY (% CONTROL) STEME [10] [%] | Postemergence herbicidal activity (% control) SOY [11] [%] | PREEMERGENCE HERBICIDAL ACTIVITY (% CONTROL) CRN [12] [%] | Postemergence herbicidal activity (% control) ALOMY [13] [%] | PREEMERGENCE HERBICIDAL ACTIVITY (% CONTROL) ALOMY [14] [%] | Postemergence herbicidal activity (% control) IPOSS [15] [%] | Postemergence herbicidal activity (% control) STEME [16] [%] | Postemergence herbicidal activity (% control) CRN [17] [%] | Postemergence herbicidal activity (% control) WHT [18] [%] | PREEMERGENCE HERBICIDAL ACTIVITY (% CONTROL) ABUTH [19] [%] | PREEMERGENCE HERBICIDAL ACTIVITY (% CONTROL) IPOSS [20] [%]
1 | Cn1c(C(F)(F)F)cc(=O)n(-c2c(F)cc(Cl)c3cc(CCC(=O)O)oc23)c1=O [Compound 262] | 100 | 90 | 100 | 100 | 40 | 95 | 70 | 100 | 80 | 100 | 95 | 40 | 50 | 50 | 100 | 95 | 80 | 60 | 100 | 100
2 | COC(=O)CCc1cc2c(Cl)cc(F)c(-n3c(=O)cc(C(F)(F)F)n(C)c3=O)c2o1 [Compound 263] | 95 | 100 | 90 | 100 | 50 | 100 | 70 | 100 | 70 | 100 | 95 | 65 | 60 | 75 | 100 | 100 | 90 | 80 | 100 | 100
3 | CCOC(=O)c1cc2cccc(-n3c(=O)cc(C(F)(F)F)n(C)c3=O)c2o1 [Compound 267] | 50 | 0 | 30 | 5 | 10 | 10 | 0 | 80 | 20 | 0 | 50 | 20 | 20 | 50 | 40 | 10 | 50 | 15 | 10 | 10
4 | Cn1c(C(F)(F)F)cc(=O)n(-c2ccc(Cl)c3cc(NC(=O)OC(C)(C)C)oc23)c1=O [Compound 272] | 20 | 20 | 70 | 90 | 0 | 50 | 60 | 100 | 40 | 100 | 50 | 20 | 20 | 70 | 60 | 50 | 45 | 30 | 100 | 70
5 | Cn1c(C(F)(F)F)cc(=O)n(-c2c(F)cc(Cl)c3cc(C(N)=O)oc23)c1=O [Compound 273] | 100 | 100 | 100 | 100 | 80 | 100 | 100 | 100 | 100 | 100 | 95 | 90 | 80 | 90 | 100 | 90 | 95 | 60 | 100 | 100
6 | CNC(=O)c1cc2c(Cl)cc(F)c(-n3c(=O)cc(C(F)(F)F)n(C)c3=O)c2o1 [Compound 274] | 100 | 100 | 100 | 100 | 100 | 100 | 100 | 100 | 100 | 90 | 95 | 90 | 90 | 95 | 100 | 90 | 95 | 60 | 100 | 100
7 | CN(C)C(=O)c1cc2c(Cl)cc(F)c(-n3c(=O)cc(C(F)(F)F)n(C)c3=O)c2o1 [Compound 275] | 100 | 100 | 100 | 100 | 80 | 100 | 95 | 100 | 100 | 100 | 100 | 100 | 95 | 80 | 100 | 100 | 90 | 70 | 100 | 100
8 | Cn1c(C(F)(F)F)cc(=O)n(-c2c(F)cc(Cl)c3[nH]c(C(F)(F)Cl)nc23)c1=O [Compound 366] | 10 | 10 | 50 | 50 | 10 | 100 | 40 | 95 | 50 | 0 | 70 | 0 | 30 | 0 | 80 | 30 | 80 | 30 | 70 | 20
